{"source": "patent US20250255847A1", "about": "“[…]s: Novel Drugs for Triple Negative Breast Cancer” (SIMMARON RSEARCH INC, priority 2024, published 2025)", "test_system": "IL6", "assay": "IL6 real-time PCR and ELISA in MDA-MB-468 cells", "type": "cell-based, human", "conditions": "for gene expression of IL6 (real-time PCR): 20 nM, 5 hrs; for IL6 protein in supernatants (ELISA): EGF stimulation, 48 hrs", "description": "FIG. 10 illustrates an embodiment of the present invention and illustrates SIM-1 and SIM-2 inhibit expressions of IL6, RANTES, and other STAT3-dependent tumor promoting genes and proteins. (A) A gene array of STAT3 dependent 66 genes (listed in Table 1) was performed in mRNA samples of MDA-MB-468 cells. Realtime PCR plate coated with 66 primer sets of STAT3-dependent genes was run for four conditions including control, EGF (25 ng/mL), EGF+SIM-1 (10 nM) and EGF+SIM-2 (10 nM). The resultant Ct value was normalized with four different housekeeping genes, and then summarized with a heatmap analyses drawn in Morpheus server of Broad Institute. […] (C) The cloning of STAT3 response element of IL6 promoter upstream of GFP reporter was performed by GeneCopoea genome editing service (Rockville, MD). The bit score map and sequence of consensus STAT3 response element or SEQ ID NO: 2 was shown below. EGFP reporter assay was performed in EGF-induced (20 ng/mL) MDA-MB-468 after treatments of increasing doses of (D) SIM-1 and (E) SIM-2 for 5 hrs. Briefly, MDA-MB-468 cells were transfected with the plasmid for 24 hrs using Lipofectamine transfection strategy followed by the treatment with EGF (20 ng/mL) alone and together with increasing doses SIM-1 and SIM-2 for additional 5 hrs. After that live cells were recorded at Ex:Em=485/535 nm wavelength for GFP activity. (F) The scrambled STAT3 response element in IL6 promoter or SEQ ID NO: 3 was also synthesized partnering with GeneCopoea. One-way ANOVA (treatment as effector) was adopted to test the significance between groups at **p<0.01, #p<0.005, and *p<0.05. (G) The GFP reporter activity was measured where the scrambled gene was cloned upstream of eGFP reporter. Results are mean±SD of three different experiments Ns=no significance. (H) Realtime PCR analyses of IL6 was performed in MDA-MB-468 cells maintained under control, EGF (25 ng/mL), EGF+SIM-1(20 nM), and EGF+SIM-2 (20 nM) conditions for 5 hrs. (I) ELISA analysis of IL6 was performed after 48 hrs in MDA-MB-468 cells kept under similar treatment conditions. (J) Realtime PCR (5 hrs post-treatment) and (K) ELISA analyses of RANTES (48 hrs post treatment) were performed under similar condition. Results are mean±SD of three different experiments. One-way ANOVA (treatment as effector) was adopted to test the significance between groups at ***p<0.001, **p<0.01, and *p<0.05.\nELISA assay. IL6 (BD OptEIA™; Cat #555220) and RANTES (Thermo; Cat #EHRNTS) ELISA was performed as per manufacturer's protocol. […]\nOnce the transcriptional regulation of STAT3-dependent genes was confirmed, the quantification of IL6 was performed. […]"}
{"smiles": "CCOC(=O)c1c(NC(C)=O)sc2c(Cl)c(/C=N/O)ccc12", "note": "[SIM-2, ethyl 2-acetamido-7-chloro-6-(hydroxyiminomethyl)-1-benzothiophene-3-carboxylate]", "values": [{"measurement": "gene expression of IL6 (real-time PCR)", "value": "strongly inhibited"}, {"measurement": "IL6 protein in supernatants (ELISA)", "value": "suppression of IL6"}]}
{"smiles": "O=C(O)CCC(=O)NCc1csc2ccc(Cl)cc12", "note": "[SIM-1, 4-[(5-chloro-1-benzothiophen-3-yl)methylamino]-4-oxobutanoic acid]", "values": [{"measurement": "gene expression of IL6 (real-time PCR)", "value": "strongly inhibited"}, {"measurement": "IL6 protein in supernatants (ELISA)", "value": "suppression of IL6"}]}
